Assay results as given in patent US12595248B2, “PRMT5 inhibitors” (Merck Sharp & Dohme LLC, priority 2019, dated 2026).
Read-outs that look alike come from different tables or passages of the source.

What was measured:
[1] = molecular target: T1, PRMT5-MEP50 enzyme complex (Homo sapiens, UniProt O14744); test: PRMT5-MEP50 Enzyme Methylation Assay (Version B); assay type: biochemical
T1 construct: Full-length (FL)-PRMT5-MEP50 enzyme complex (recombinant proteins from baculovirus-transfected Sf21 cells: FL-PRMT5; MW=73837 kDa and FL-MEP50; MW=38614); made in house; host or cells: baculovirus-transfected Sf21 cells
T1 sequence (O14744 whole entry): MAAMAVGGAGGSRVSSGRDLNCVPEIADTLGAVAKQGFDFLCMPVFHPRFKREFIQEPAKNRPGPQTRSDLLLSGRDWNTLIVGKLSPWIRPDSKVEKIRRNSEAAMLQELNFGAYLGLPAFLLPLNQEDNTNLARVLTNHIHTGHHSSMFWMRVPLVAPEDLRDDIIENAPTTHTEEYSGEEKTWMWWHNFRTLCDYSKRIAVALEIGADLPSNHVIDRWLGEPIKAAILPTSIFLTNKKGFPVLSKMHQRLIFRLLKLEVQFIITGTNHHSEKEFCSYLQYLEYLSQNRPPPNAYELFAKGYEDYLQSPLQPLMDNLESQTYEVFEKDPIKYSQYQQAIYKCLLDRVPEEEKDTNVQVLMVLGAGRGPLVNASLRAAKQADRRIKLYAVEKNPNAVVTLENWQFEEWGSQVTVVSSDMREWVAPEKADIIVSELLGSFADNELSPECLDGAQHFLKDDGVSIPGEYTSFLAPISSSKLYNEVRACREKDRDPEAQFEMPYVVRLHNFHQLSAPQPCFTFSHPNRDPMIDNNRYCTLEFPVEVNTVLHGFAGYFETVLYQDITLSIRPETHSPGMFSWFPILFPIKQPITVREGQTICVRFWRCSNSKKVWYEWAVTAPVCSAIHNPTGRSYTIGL
T1 sequence (Q9BQA1 whole entry partner): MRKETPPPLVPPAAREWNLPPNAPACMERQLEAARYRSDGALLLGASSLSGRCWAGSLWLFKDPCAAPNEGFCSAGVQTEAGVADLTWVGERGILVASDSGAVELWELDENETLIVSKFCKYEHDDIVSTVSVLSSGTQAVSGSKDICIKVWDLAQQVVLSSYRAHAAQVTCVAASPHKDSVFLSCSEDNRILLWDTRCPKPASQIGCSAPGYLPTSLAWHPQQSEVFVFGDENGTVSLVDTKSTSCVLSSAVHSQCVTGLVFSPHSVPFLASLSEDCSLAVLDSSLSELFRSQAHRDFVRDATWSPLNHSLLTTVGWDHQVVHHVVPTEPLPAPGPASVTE
Procedure: PRMT5-MEP50 Enzyme Methylation Assay (Version B)
PRMT5-MEP50 biochemical assay is a direct measurement of the methylation activity of the enzyme complex on a short peptide substrate derived from the N-terminus of H4 histone. Methylation experiment was performed with recombinant PRMT5-MEP50 protein complex. The assessment of inhibitory effect (EC50) of small molecules was measured by the effectiveness of the compounds to inhibit this reaction.
In this assay, the potency (EC50) of each compound was determined from a twenty-point (1:2 serial dilution; top compound concentration of 100000 nM) titration curve using the following outlined procedure. To each well of a white ProxiPlus 384 well-plate, 100 nL of compound (1% DMSO in final assay volume of 10 μL) was dispensed, followed by the addition of 8 μL of 1× assay buffer (50 mM Bicine pH 8.0, 1 mM DTT, 0.004% Tween20, 0.01% BSA) containing 0.625 nM of Full-length (FL)-PRMT5-MEP50 enzyme complex (recombinant proteins from baculovirus-transfected Sf21 cells: FL-PRMT5; MW=[…] and FL-MEP50; MW=38614). Plates were sealed and placed in a 37° C. humidified chamber for 30 minutes pre-incubation with compounds. Subsequently, each reaction was initiated by the addition of 2 μL 1× assay buffer containing 375 nM biotinylated H4R3 (MeI) peptide, and 75 μM S-(5′-Adenosyl)-L-Methionine Chloride (SAM). The final reaction in each well of 10 μL consists of 0.5 nM PRMT5-MEP50, 75 nM biotinylated-peptide, and 15 μM SAM. Methylation reactions were allowed to proceed for 150 minutes in a sealed plate at 37° C. Reactions were immediately quenched by the addition of 1 μL of 10% formic acid. Plates were then frozen and shipped to SAMDI™ Tech Inc. to determine the percent conversion from […]. Dose-response curves were generated by plotting percent effect (% product conversion; Y-axis) vs. Log 10 compound concentrations (X-axis). EC50 values were determined by non-linear regression according to models for either sigmoidal (4 parameters) or biphasic (7 parameters) dose-response curves.

PRMT5 = molecular target: T2, PRMT5 (Homo sapiens, UniProt O14744); test: PRMT5 Cell Target Engagement (TE) Assay; assay type: cell-based; conditions: MCF-7 cells, treated for 3 days, symmetric dimethylation of arginine (SDMA) by high content imaging
T2 construct: seeded with 4000 MCF-7 cells in 30 μl media; endogenous in cells; host or cells: MCF-7 cells
T2 sequence (O14744 whole entry): as the sequence (O14744 whole entry) above
T2 sequence (Q9BQA1 whole entry partner): as the sequence (Q9BQA1 whole entry partner) above
Excerpt: PRMT5 Cell Target Engagement (TE) Assay
The PRMT5 TE assay is a biomarker assay for identifying compounds that inhibit symmetric dimethylation of arginine (SDMA) of PRMT5 substrates. The following substrates have been reported for PRMT5: histone H2A and H4 R3, Histone H3 R2, Histone H3 R8, spliceosome Sm proteins, ribosomal protein RPS10, p53, FEN1, nucleoplasmin, nucleolin, EGFR and EBNA. The assay focuses on detecting symmetrically dimethylated nuclear proteins using high content imaging technology. Detection of the expression of symmetrically dimethylated nuclear proteins is through a mixture of primary rabbit monoclonal antibodies to SDMA (CST 13222), which in turn recognized by an Alexafluor 488 dye-conjugated anti-rabbit IgG secondary antibody. The IN Cell Analyzer 2200 or Opera-Phenix measures nuclear Alexafluor 488 fluorescent dye intensity that is directly related to the level of expression of symmetrically dimethylated nuclear proteins at the single cell level. Nuclear AF488 dye intensities are compared to the mean value for DMSO treated cells (MIN) to report percent of inhibition for each compound-treated well.
In this assay, the cell potency (EC50) of each compound was determined from a ten point (1:3 serial dilution; top compound concentration of 10000 nM) titration curve using the following outlined procedure. Each well of a BD falcon collagen coated black/clear bottom 384-well plate was seeded with 4000 MCF-7 cells in 30 μl media and allowed to attach for 5 h. Media is ATCC-formulated Eagle's Minimum Essential Medium, Catalog No. 30-2003. To make the complete growth medium, the following components were added to the base medium: 0.01 mg/mL human recombinant insulin; fetal bovine serum to a final concentration of 10%. Additional 30 μl of media containing 2× compounds were added to each well. Cells were treated for 3 days in 37° C. CO2 incubator. On day 3, cells were fixed with Cytofix, permeabilized with 0.4% Triton-X-100/Cytofix, and washed with D-PBS without Ca/Mg. Cells were blocked with Licor Odessey blocking reagent for 1 h at room temperature, followed by incubation with anti-SDMA (1:1000) antibody at 4° C. overnight. 1° antibody was removed, followed by three washings with DPBS without Ca/Mg and 0.05% Tween20. Hoechst (5 μg/mL), Cell Mask deep stain (1:2000) and Alexa488-conjugated goat anti-rabbit IgG (2 μg/mL) was added for 1 h at room temperature. A final washing step (three washes) was performed before sealing plate for imaging on In Cell Analyzer 2200 or Opera-Phenix. Images from analyzer were uploaded to Columbus (at WP or BOS) for image analysis. IC50 values were determined by 4 parameters robust fit of percent fluorescence units vs. (Log10) compound concentrations.

[2] = first of two EC50s: 7 parameters biphasic model, read-out: Enzyme Methylation Assay Version B (EC50_1)
[3] = second of two EC50s: 7 parameters biphasic model, read-out: Enzyme Methylation Assay Version B (EC50_2)
[4] = only one EC50 shown: 4 parameters single site sigmoidal model, 30 min pre-incubation, read-out: Enzyme Methylation Assay Version B (EC50)

| EC50 [1, 2] [µM] | EC50 [1, 3] [µM] | EC50 (PRMT5) [µM] | EC50 [1, 4] [µM] | Compound |
| --- | --- | --- | --- | --- |
| 0.0037 | 3.2 | 0.441 | – | O=C(c1ccc(OCC(F)(F)F)nc1)N1CC[C@H](N2CCc3ccccc3C2)[C@@H](O)C1 [Example 43, ((3S,4S)-4-(3,4-dihydroisoquinolin-2(1H)-yl)-3-hydroxypiperidin-1-yl)(6-(2,2,2-trifluoroethoxy)pyridin-3-yl)methanone] |
| – | – | > 10 | 1.54 | CC(C)(C#N)c1ccc(C(=O)N2CC[C@@H](N3CCc4ccccc4C3)[C@H](O)C2)cn1 (single isomer, unassigned) [Example 90] |
| – | – | > 10 | 1.18 | Cc1ccc2c(c1)CN(C1CCN(C(=O)c3ccc(OCC(F)(F)F)nc3)CC1O)CC2 (single isomer, unassigned) [Example 47, ((3R,4R or 3S,4S)-3-hydroxy-4-(7-methyl-3,4-dihydroisoquinolin-2(1H)-yl)piperidin-1-yl)(6-(2,2,2-trifluoroethoxy)pyridin-3-yl)methanone] |
| ~0.014 | 17.6 | 0.641 | – | CCC1Oc2ccc(C(=O)N3CC[C@@H](N4CCc5ccccc5C4)[C@H](O)C3)cc2NC1=O (single isomer, unassigned) [Example 13] |
| 0.106 | 45.7 | 6.07 | – | CCC1Oc2ccc(C(=O)N3CC[C@@H](N4CCc5ccccc5C4)[C@H](O)C3)cc2NC1=O (single isomer, unassigned) [Example 12] |
| ~0.118 | > 100 | 5.83 | – | CC1(C)OC(=O)Nc2cc(C(=O)N3CC[C@@H](N4CCc5ccccc5C4)[C@H](O)C3)ccc21 [Example 98, 7-((3R,4R)-4-(3,4-dihydroisoquinolin-2(1H)-yl)-3-hydroxypiperidine-1-carbonyl)-4,4-dimethyl-1,4-dihydro-2H-benzo[d][1,3]oxazin-2-one] |
| 0.127 | 70.8 | 7.53 | – | CC1OC(=O)Nc2cc(C(=O)N3CC[C@H](N4CCc5ccccc5C4)[C@@H](O)C3)ccc21 (single isomer, unassigned) [Example 91] |
| – | – | > 10 | 2.55 | O=C(c1ccc(-c2ncnn2C2CC2)cc1)N1CC[C@@H](N2CCc3ccccc3C2)[C@H](O)C1 [Example 61, (4-(1-cyclopropyl-1H-1,2,4-triazol-5-yl)phenyl)((3R,4R)-4-(3,4-dihydroisoquinolin-2(1H)-yl)-3-hydroxypiperidin-1-yl)methanone] |
| 1.27 | 45.2 | 1.66 | – | CC(=O)N1CCC(Nc2cc(C(=O)N3CCC(N4Cc5ccccc5C(F)(F)C4)C(O)C3)c(Cl)cn2)CC1 (single isomer, unassigned) [Example 28, l-(4-((5-chloro-4-(-4-(4,4-difluoro-3,4-dihydroisoquinolin-2(lH)-yl)-3-hydroxypiperidine-1 - carbonyl)pyridin-2-yl)amino)piperidin-1-yl)ethan-1-one] |
| ~0.571 | > 100 | 9.29 | – | CC(=O)N1CCC(Nc2cc(C(=O)N3CC[C@@H](N4CCc5ccccc5C4)[C@H](O)C3)ccn2)C(F)(F)C1 (single isomer, unassigned) [Example 8] |
| – | – | > 10 | 5.56 | CC(=O)N1CCC(Nc2cc(C(=O)N3CCC(N4Cc5ccccc5C(F)(F)C4)C(O)C3)c(F)cn2)CC1 (single isomer, unassigned) [Example 24, 1-(4-((4-(-4-(4,4-difluoro-3,4-dihydroisoquinolin-2(1H)-yl)-3-hydroxypiperidine-1-carbonyl)-5-fluoropyridin-2-yl)amino)piperidin-1-yl)ethan-1-one] |
| ~0.01 | 29.2 | > 10 | – | Cc1ccc2c(c1)CCN([C@H]1CCN(C(=O)c3ccc(OCC(F)(F)F)nc3)C[C@@H]1O)C2 [Example 4, ((3S,4S)-3-hydroxy-4-(6-methyl-3,4-dihydroisoquinolin-2(1H)-yl)piperidin-1-yl)(6-(2,2,2-trifluoroethoxy)pyridin-3-yl)methanone] |
| – | – | > 10 | 1.34 | O=C(c1ccc(OCC(F)(F)F)nc1)N1CCC(N2Cc3ccccc3C(F)(F)C2)C(O)C1 (single isomer, unassigned) [Example 29, (-4-(4,4-difluoro-3,4-dihydroisoquinolin-2(1H)-yl)-3-hydroxypiperidin-1-yl)(6-(2,2,2-trifluoroethoxy)pyridin-3-yl)methanone] |
| 0.0082 | 8.71 | 0.131 | – | CC1OC(=O)Nc2cc(C(=O)N3CC[C@H](N4CCc5ccccc5C4)[C@@H](O)C3)c(F)cc21 (single isomer, unassigned) [Example 99] |
| 0.0018 | 1.07 | 0.0049 | – | CCC1Oc2ccc(C(=O)N3CC[C@H](N4CCc5ccccc5C4)[C@@H](O)C3)cc2NC1=O (single isomer, unassigned) [Example 11] |

| Compound | EC50 [1, 2] [µM] | EC50 [1, 3] [µM] | EC50 (PRMT5) [µM] | EC50 [1, 4] [µM] |
| --- | --- | --- | --- | --- |
| O=C(c1ccc(C(=O)N2C3CCC2COC3)cc1)N1CC[C@@H](N2CCc3cc(F)ccc3C2)[C@H](O)C1 [Example 40, (4-(3-oxa-8-azabicyclo[3.2.1]octane-8-carbonyl)phenyl)((3R,4R)-4-(6-fluoro-3,4-dihydroisoquinolin-2(1H)-yl)-3-hydroxypiperidin-1-yl)methanone] | 45.1 | > 100 | > 10 | – |
| O=C(c1ccc(C(=O)N2C3CCC2COC3)cc1)N1CC[C@H](N2CCc3ccccc3C2)[C@@H](O)C1 [Example 35] | 0.0066 | 2.58 | 0.068 | – |
| O=C(c1ccc(C(=O)N2C3CCC2COC3)cc1)N1CC[C@@H](N2CCc3ccc(F)cc3C2)[C@H](O)C1 [Example 42] | 12.4 | > 100 | > 10 | – |
| O=C(c1ccc(C(=O)N2C3CCC2COC3)cc1)N1CC[C@H](N2CCc3ccc(F)cc3C2)[C@@H](O)C1 [Example 41, (4-(3-oxa-8-azabicyclo[3.2.1]octane-8-carbonyl)phenyl)((3S,4S)-4-(7-fluoro-3,4-dihydroisoquinolin-2(1H)-yl)-3-hydroxypiperidin-1-yl)methanone] | 0.019 | 8.11 | 1.49 | – |
| O=C(c1ccc(C(=O)N2C3CCC2COC3)cc1)N1CC[C@H](N2CCc3cc(F)ccc3C2)[C@@H](O)C1 [Example 39, (4-(3-oxa-8-azabicyclo[3.2.1]octane-8-carbonyl)phenyl)((3S,4S)-4-(6-fluoro-3,4-dihydroisoquinolin-2(1H)-yl)-3-hydroxypiperidin-1-yl)methanone] | 31.2 | > 100 | > 10 | – |
